The results in this text go back to ChEMBL document CHEMBL3232706, “SAR-studies on the importance of aromatic ring topologies in search for selective 5-HT(7) receptor ligands among phenylpiperazine hydantoin derivatives” (Eur J Med Chem, 2014).

The target in assay [1] is T1, Alpha-1A adrenergic receptor (Rattus norvegicus, UniProt P43140).
T1 sequence (P43140 whole entry): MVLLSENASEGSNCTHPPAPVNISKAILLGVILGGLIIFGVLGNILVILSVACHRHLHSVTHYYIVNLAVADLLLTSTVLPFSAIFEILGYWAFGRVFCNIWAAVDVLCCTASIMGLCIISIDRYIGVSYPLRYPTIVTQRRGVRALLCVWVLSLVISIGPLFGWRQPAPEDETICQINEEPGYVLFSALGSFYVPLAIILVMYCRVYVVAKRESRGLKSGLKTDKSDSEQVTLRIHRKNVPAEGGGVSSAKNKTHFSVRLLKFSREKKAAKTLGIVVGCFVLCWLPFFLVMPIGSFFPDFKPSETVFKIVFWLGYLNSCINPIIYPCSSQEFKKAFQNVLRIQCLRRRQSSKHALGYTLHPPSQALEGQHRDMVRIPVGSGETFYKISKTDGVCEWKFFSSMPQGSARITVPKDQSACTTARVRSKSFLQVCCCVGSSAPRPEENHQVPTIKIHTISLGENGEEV
Kind of assay: Antagonist activity at alpha1A adrenoceptor in Wistar (Krf:(WI) WU) rat endothelium-denuded tail artery assessed as inhibition of noradrenaline-induced contraction after 30 mins. Conditions: read-out: pA2 (converted).

Assay [2] has as its target T2, Alpha-1D adrenergic receptor (Rattus norvegicus, UniProt P23944).
T2 sequence (P23944 whole entry): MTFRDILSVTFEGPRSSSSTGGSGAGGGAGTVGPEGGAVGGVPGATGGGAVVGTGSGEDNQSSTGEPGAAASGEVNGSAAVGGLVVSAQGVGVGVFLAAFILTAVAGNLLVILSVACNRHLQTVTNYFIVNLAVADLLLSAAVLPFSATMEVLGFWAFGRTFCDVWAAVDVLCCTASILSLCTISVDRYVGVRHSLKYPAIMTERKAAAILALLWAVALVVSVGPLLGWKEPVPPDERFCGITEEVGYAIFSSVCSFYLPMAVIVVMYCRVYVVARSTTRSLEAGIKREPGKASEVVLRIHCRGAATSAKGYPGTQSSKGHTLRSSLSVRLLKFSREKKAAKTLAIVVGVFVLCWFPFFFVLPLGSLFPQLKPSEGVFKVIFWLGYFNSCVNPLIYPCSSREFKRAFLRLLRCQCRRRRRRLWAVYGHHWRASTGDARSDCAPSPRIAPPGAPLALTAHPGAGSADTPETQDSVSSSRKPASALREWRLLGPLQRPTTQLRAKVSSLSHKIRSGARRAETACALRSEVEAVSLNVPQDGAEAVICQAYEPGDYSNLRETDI
Kind of assay: Antagonist activity at alpha1D adrenoceptor in Wistar (Krf:(WI) WU) rat endothelium-denuded thoracic aorta assessed as inhibition of noradrenaline-induced contraction after 30 mins. The note with it: read-out: pA2 (converted).

The target of assay [3] is T3, 5-hydroxytryptamine receptor 1A (Homo sapiens, UniProt P08908).
T3 sequence (P08908 whole entry): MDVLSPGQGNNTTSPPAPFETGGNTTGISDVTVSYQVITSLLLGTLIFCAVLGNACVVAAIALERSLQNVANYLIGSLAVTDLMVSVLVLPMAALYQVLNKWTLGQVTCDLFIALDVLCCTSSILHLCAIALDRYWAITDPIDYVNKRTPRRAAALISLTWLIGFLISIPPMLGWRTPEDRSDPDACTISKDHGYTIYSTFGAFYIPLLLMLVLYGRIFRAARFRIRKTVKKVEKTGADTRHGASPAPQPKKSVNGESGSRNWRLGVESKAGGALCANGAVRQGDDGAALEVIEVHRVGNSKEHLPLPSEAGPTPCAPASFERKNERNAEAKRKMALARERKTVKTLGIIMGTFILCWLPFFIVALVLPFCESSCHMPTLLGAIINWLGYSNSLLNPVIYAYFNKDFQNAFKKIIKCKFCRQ
Description: Displacement of [3H]-8-OH-DPAT from human recombinant 5-HT1A receptor expressed in HEK293 cell membrane after 1 hr by Microbeta scintillation counting analysis. It counts as cell membranes. (In general: Displacement assays read how much labelled ligand stays bound in the presence of the test substance.)

In assay [4] the target is T4, Alpha-1B adrenergic receptor (Mus musculus, UniProt P97717).
T4 sequence (P97717 whole entry): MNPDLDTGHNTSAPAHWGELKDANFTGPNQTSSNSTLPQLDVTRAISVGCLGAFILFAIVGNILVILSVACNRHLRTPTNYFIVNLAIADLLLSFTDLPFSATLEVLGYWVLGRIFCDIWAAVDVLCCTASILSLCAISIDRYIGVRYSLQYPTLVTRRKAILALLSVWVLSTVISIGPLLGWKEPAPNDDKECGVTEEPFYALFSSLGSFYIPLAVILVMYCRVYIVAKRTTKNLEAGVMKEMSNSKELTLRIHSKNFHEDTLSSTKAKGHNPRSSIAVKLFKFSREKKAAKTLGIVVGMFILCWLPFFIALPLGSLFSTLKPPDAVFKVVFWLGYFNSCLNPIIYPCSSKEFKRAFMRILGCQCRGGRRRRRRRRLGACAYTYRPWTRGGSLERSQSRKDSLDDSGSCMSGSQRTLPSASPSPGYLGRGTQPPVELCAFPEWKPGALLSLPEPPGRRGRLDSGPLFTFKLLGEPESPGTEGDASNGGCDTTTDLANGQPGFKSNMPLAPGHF
Description: Antagonist activity at alpha1B-adrenoceptor in Albino swiss mouse spleen assessed as inhibition of noradrenaline-induced contraction after 30 mins. Conditions: read-out: pA2 (converted).

For assay [5], the target named is T5, Adrenergic receptor alpha-1 (Rattus norvegicus, UniProt P15823+P23944+P43140).
T5 sequence (P15823 whole entry): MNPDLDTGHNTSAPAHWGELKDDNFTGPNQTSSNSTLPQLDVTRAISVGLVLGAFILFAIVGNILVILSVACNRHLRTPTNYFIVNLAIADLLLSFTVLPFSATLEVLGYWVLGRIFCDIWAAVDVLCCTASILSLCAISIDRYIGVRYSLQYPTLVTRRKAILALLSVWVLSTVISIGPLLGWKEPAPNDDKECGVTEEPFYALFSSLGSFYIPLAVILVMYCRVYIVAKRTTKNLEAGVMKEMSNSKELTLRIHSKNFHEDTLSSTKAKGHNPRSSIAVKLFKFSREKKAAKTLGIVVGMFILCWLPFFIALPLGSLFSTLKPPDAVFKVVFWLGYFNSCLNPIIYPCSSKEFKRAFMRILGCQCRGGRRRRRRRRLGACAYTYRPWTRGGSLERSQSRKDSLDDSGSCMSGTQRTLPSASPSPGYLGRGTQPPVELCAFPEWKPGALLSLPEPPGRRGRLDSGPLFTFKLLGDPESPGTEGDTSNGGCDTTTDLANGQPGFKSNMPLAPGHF
T5 sequence (P23944 whole entry): T2 sequence (P23944 whole entry)
T5 sequence (P43140 whole entry): T1 sequence (P43140 whole entry)
Kind of assay: Displacement of [3H]prazosin from alpha1 adrenergic receptor in rat cerebral cortex after 30 mins by Microbeta scintillation counting analysis. It counts as tissue-based.

Assay [6] deals with 5-hydroxytryptamine receptor 6 (Homo sapiens, UniProt P50406). Kind of assay: Displacement of [3H]-LSD from human recombinant 5-HT6 receptor expressed in HEK293 cell membrane after 1 hr by Microbeta scintillation counting analysis. It counts as cell membranes.
Assay [7] deals with 5-hydroxytryptamine receptor 7 (Homo sapiens, UniProt P34969). Description: Displacement of [3H]-5-CT from human recombinant 5-HT7 receptor expressed in HEK293 cell membrane after 1 hr by Microbeta scintillation counting analysis. The class given is cell membranes.

Structures are written as SMILES.

5-hydroxytryptamine receptor 6, sequence (P50406 whole entry): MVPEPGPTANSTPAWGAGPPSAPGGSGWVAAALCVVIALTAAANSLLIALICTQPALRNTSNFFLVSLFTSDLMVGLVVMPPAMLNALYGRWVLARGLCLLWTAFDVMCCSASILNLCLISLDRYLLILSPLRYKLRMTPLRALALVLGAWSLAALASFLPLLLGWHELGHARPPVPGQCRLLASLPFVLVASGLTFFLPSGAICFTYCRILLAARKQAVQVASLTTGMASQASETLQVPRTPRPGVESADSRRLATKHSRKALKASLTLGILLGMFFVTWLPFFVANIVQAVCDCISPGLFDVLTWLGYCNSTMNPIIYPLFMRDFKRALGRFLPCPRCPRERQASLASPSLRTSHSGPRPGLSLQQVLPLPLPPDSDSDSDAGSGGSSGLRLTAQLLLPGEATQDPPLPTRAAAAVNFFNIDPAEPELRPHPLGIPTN
5-hydroxytryptamine receptor 7, sequence (P34969 whole entry): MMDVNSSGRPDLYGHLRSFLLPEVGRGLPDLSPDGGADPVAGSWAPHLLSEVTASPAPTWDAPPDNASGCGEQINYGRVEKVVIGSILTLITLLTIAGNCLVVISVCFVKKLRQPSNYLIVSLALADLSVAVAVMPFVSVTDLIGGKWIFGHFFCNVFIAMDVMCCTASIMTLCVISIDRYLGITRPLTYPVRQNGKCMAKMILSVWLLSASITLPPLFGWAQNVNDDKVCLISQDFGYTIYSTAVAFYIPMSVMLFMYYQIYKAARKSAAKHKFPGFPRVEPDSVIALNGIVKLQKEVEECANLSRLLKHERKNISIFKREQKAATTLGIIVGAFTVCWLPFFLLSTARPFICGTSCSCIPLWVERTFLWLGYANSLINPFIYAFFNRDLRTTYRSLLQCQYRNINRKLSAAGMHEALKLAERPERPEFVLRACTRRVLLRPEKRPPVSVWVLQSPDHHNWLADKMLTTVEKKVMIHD

With `CN1C(=O)N(CCCCCN2CCN(c3ccccc3)CC2)C(C)(c2ccccc2)C1=O.Cl` (stereo not drawn), the Kb in assay [1] is 38.6 nM; in assay [2], 7.31 nM; in assay [4] it was 48.8 nM. The Ki – broadly, a measure of affinity in units of concentration, obtained from inhibition or displacement – in assay [3] turned out to be 135 nM; in assay [5] it was 7.3 nM; in assay [6], 9600 nM.
For `CN1C(=O)N(CCCCCN2CCN(c3ccccc3F)CC2)C(C)(c2ccccc2)C1=O.Cl` (stereo not drawn), the Kb was 48.3 nM in assay [1], 3.01 nM in assay [2] and 7.21 nM in assay [4]. For the same compound, the Ki was determined as 124 nM in assay [3], 11.3 nM in assay [5], 157 nM in assay [7] and 25500 nM in assay [6].
